According to patent publication US8163793B2, “Proline derivatives” (Hoffman-La Roche Inc., priority 2009, dated 2012):
Structures can show the parent of a compound that is named as a salt.

Experiments:
[1] = target: Cathepsin S (UniProt P25774); assay: Cathepsin enzyme inhibition assay (fluorogenic peptide substrate Z-Val-Val-Arg-AMC), Cathepsin S; format: biochemical, human and mouse; settings: enzyme 1 nM, substrate 20 μM, pH 6.5; read-out: CatS IC50
Summary of the method: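 Human or mouse cathepsin S (1 nM) was run in 100 mM potassium phosphate pH 6.5 with 5 mM EDTA, 0.001% Triton X-100 and 5 mM DTT. The rise in AMC fluorescence from cleavage was measured, and IC50 values were calculated by standard methods and expressed in μM.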

[2] = target: Cat L (UniProt P07711); assay: Cathepsin enzyme inhibition assay (fluorogenic peptide substrate Z-Val-Val-Arg-AMC), Cathepsin L; format: biochemical, human and mouse; settings: enzyme 1 nM, substrate 20 μM, pH 6.5; read-out: CatL IC50
Summary of the method: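 Cathepsin L at 1 nM was mixed with compound, then started with 20 μM Z-Val-Val-Arg-AMC in pH 6.5 potassium phosphate with EDTA, Triton X-100 and 5 mM DTT. AMC fluorescence (ex 360/em 465 nm) was followed over 20 min. IC50 is given in μM.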

| Structure (SMILES) | IC50 [1] | IC50 [2] |
| --- | --- | --- |
| N#CC1(NC(=O)[C@@H]2C[C@@H](S(=O)(=O)c3ccccc3Cl)CN2)CCC1 [Example 45, (2S,4R)-4-(2-Chloro-benzenesulfonyl)-pyrrolidine-2-carboxylic acid (1-cyano-cyclobutyl)-amide Hydrochloride] | 378 nM | ≥ 25000 nM |
| Cc1cc(N2C[C@H](S(=O)(=O)c3ccc(OCC(F)(F)F)cc3C(F)(F)F)C[C@@H]2C(=O)NC2(C#N)CC2)n(C2CCC2)n1 [Example 392, (2R,4R)-1-(2-Cyclobutyl-5-methyl-2H-pyrazol-3-yl)-4-[4-(2,2,2-trifluoro-ethoxy)-2-trifluoromethyl-benzenesulfonyl]-pyrrolidine-2-carboxylic acid (1-cyano-cyclopropyl)-amide] | 0.91 nM | ≥ 25000 nM |
| N#CC1(NC(=O)[C@@H]2C[C@@H](S(=O)(=O)c3ccccc3CO)CN2)CC1 [Example 12, (2S,4R)-4-(2-Hydroxymethyl-benzenesulfonyl)-pyrrolidine-2-carboxylic acid (1-cyano-cyclopropyl)-amide Hydrochloride] | 18 nM | 42200 nM |
| N#CC1(NC(=O)[C@@H]2C[C@@H](S(=O)(=O)c3ccccc3C(F)(F)F)CN2CC(F)(F)C(F)(F)F)CC1 [Example 109, (2S,4R)-1-(2,2,3,3,3-Pentafluoro-propyl)-4-(2-trifluoromethyl-benzenesulfonyl)-pyrrolidine-2-carboxylic acid (1-cyano-cyclopropyl)-amide] | 12.7 nM | ≥ 25000 nM |
| Cc1ccc(S(=O)(=O)[C@@H]2C[C@@H](C(=O)NC3(C#N)CC3)N(C(=O)OC(C)(C)C)C2)c(C)c1 [Example 39, (2S,4R)-2-(1-Cyano-cyclopropylcarbamoyl)-4-(2,4-dimethyl-benzenesulfonyl)-pyrrolidine-1-carboxylic acid tert-butyl ester] | 2.2 nM | 50200 nM |
| C[C@H](Oc1ccc(S(=O)(=O)[C@@H]2C[C@H](C(=O)NC3(C#N)CC3)N(C(=O)C3(C(F)(F)F)CC3)C2)c(Cl)c1)C(F)(F)F [Example 184, (2R,4R)-4-[2-Chloro-4-((S)-2,2,2-trifluoro-1-methyl-ethoxy)-benzenesulfonyl]-1-(1-trifluoromethyl-cyclopropanecarbonyl)-pyrrolidine-2-carboxylic acid (1-cyano-cyclopropyl)-amide] | 32 nM | ≥ 25000 nM |

Now those with a lower IC50 [1], led by results:

| IC50 [1] | IC50 [2] | Structure (SMILES) |
| --- | --- | --- |
| 0.353 nM | 7840 nM | CC1(C(=O)N2C[C@H](S(=O)(=O)c3ccc(OCC(F)(F)F)cc3Cl)C[C@H]2C(=O)NC2(C#N)CC2)COC1 [Example 294, (2S,4R)-4-[2-Chloro-4-(2,2,2-trifluoro-ethoxy)-benzenesulfonyl]-1-(3-methyl-oxetane-3-carbonyl)-pyrrolidine-2-carboxylic acid (1-cyano-cyclopropyl)-amide] |
| 0.51 nM | 3540 nM | COCCOc1ccc(S(=O)(=O)[C@@H]2C[C@@H](C(=O)NC3(C#N)CC3)N(c3cc(C)nn3C3CCC3)C2)c(Cl)c1 [Example 489, (2S,4R)-4-[2-Chloro-4-(2-methoxy-ethoxy)-benzenesulfonyl]-1-(2-cyclobutyl-5-methyl-2H-pyrazol-3-yl)-pyrrolidine-2-carboxylic acid (1-cyano-cyclopropyl)-amide] |
| 0.245 nM | 185 nM | N#CC1(NC(=O)[C@@H]2C[C@@H](S(=O)(=O)c3ccc(OCC(F)(F)F)cc3Cl)CN2C(=O)C2CC2c2ccccc2)CC1 (some centres unmarked) [Example 246] |
| 0.17 nM | 51 nM | N#CC1(NC(=O)[C@@H]2C[C@@H](S(=O)(=O)c3ccc(OCC(F)(F)F)cc3Cl)CN2C(=O)C2(c3ccc4ccccc4c3)CC2)CC1 [Example 348, (2S,4R)-4-[2-Chloro-4-(2,2,2-trifluoro-ethoxy)-benzenesulfonyl]-1-(1-naphthalen-2-yl-cyclopropanecarbonyl)-pyrrolidine-2-carboxylic acid (1-cyano-cyclopropyl)-amide] |
